Measured values from patent US20230047816A1 (priority 2018, published 2023).

Molecular target: Recombinant full length human PFKFB3 (Homo sapiens, UniProt Q16875)
Assay: PFKFB3 kinase activity assay (ADP production, ADP-Glo)

Chain of Recombinant full length human PFKFB3 (Q16875 whole entry): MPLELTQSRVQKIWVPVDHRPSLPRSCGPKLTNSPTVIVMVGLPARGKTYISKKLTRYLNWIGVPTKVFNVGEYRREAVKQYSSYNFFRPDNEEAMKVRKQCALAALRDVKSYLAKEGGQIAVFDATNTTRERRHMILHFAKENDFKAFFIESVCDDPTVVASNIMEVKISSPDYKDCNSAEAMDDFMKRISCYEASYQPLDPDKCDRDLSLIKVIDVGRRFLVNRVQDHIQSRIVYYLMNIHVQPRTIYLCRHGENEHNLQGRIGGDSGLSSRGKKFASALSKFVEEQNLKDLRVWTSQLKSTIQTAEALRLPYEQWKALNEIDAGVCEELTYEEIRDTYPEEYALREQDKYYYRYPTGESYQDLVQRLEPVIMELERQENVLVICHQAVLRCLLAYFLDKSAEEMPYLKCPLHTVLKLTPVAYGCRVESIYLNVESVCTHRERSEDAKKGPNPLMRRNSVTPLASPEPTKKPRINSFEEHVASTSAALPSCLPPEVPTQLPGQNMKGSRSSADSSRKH

Row | IC50 [µM] | SMILES
1 | 5 to 20 | COc1ccc(-c2nnn[nH]2)c(N2C(=O)c3ccc(-c4c[nH]nn4)cc3C2=O)c1 [compound 154, 2-(2-(1H-tetrazol-5-yl)-5-methoxyphenyl)-5-(1H-1,2,3-triazol-4-yl)isoindoline-1,3-dione]
2 | < 20 | O=C(O)c1cc(C(=O)O)c(C(=O)Nc2cc(-c3ccc(F)c(F)c3)ccc2C(=O)O)cc1O [Example 16, 4-({4-carboxy-3′,4′-difluoro-[1,1′-biphenyl]-3-yl}carbamoyl)-6-hydroxybenzene-1,3-dicarboxylic acid]
3 | 0.5 to 2 | O=C(O)c1cc(-c2cn[nH]c2)ccc1N1C(=O)c2ccc(-c3c[nH]nn3)cc2C1=O [Compound 71, 2-[1,3-Dioxo-5-(1H-[1,2,3]triazol-4-yl)-1,3-dihydroisoindol-2-yl]-5-(1H-pyrazol-4-yl)-benzoic Acid]
4 | < 20 | O=C(O)c1cc(-c2cncnc2)ccc1N1C(=O)c2ccc(-c3c[nH]nn3)cc2C1=O [Example 64]
5 | 0.5 to 2 | O=C(O)c1ccc(-c2ccc(F)c(F)c2)cc1N1Cc2ccc(-c3nn[nH]c3-c3ccccc3)cc2C1=O [compound 163, 3′,4′-difluoro-3-(1-oxo-6-(5-phenyl-1H-1,2,3-triazol-4-yl)isoindolin-2-yl)biphenyl-4-carboxylic acid]
6 | < 0.5 | COc1ccc(-c2ccc(C(=O)O)c(N3C(=O)c4ccc(C(=O)O)cc4C3=O)c2)cc1 [Example 55]
7 | < 20 | COC(=O)c1ccc(-c2ccccc2)cc1N1Cc2ccc(C(=O)NS(C)(=O)=O)cc2C1=O [Compound 103, 3-(6-Methanesulfonylaminocarbonyl-1-oxo-1,3-dihydroisoindol-2-yl)biphenyl-4-carboxylic acid methyl ester]
8 | 5 to 20 | O=C1c2ccc(-c3c[nH]nn3)cc2C(=O)N1c1cc(-c2ccc(F)cc2)ccn1 [Compound 87, 2-[4-(4-Fluorophenyl)-pyridin-2-yl]-5-(1H-[1,2,3]triazol-4-yl)-isoindole-1,3-dione]
9 | < 0.5 | CC1(C)CCN(c2ccc(C(=O)O)c(NC(=O)c3cc(C(=O)O)c(O)cc3C(=O)O)c2)CC1 [Example 56, 2-{[2-carboxy-5-(4,4-dimethylpiperidin-1-yl)phenyl]carbamoyl}-5-hydroxybenzene-1,4-dicarboxylic acid]
10 | < 20 | CCCCOC(=O)c1ccc2c(c1)C(=O)N(c1cc(-c3ccc(F)c(F)c3)ccc1C(N)=O)C2 [Compound 123, 2-(4-Carbamoyl-3′,4′-difluorobiphenyl-3-yl)-3-oxo-2,3-dihydro-1H-isoindole-5-carboxylic acid butyl ester]
11 | 5 to 20 | NC(=O)c1ccc(-c2ccc(F)c(F)c2)cc1N1Cc2ccc(C(=O)O)cc2C1=O [Compound 119, 2-(4-Carbamoyl-3′,4′-difluorobiphenyl-3-yl)-3-oxo-2,3-dihydro-1H-isoindole-5-carboxylic acid]
12 | < 20 | NCCOC(=O)c1ccc(-c2ccccc2)cc1N1C(=O)c2ccc(-c3c[nH]nn3)cc2C1=O [Compound 72, 3-[1,3-Dioxo-5-(1H-[1,2,3]triazol-4-yl)-1,3-dihydroisoindol-2-yl]biphenyl-4-carboxylic Acid 2-amino-ethyl ester]
13 | < 0.5 | COc1cc2c(cc1C(=O)O)C(=O)N(c1cc(-c3ccc(F)c(F)c3)ccc1C(=O)O)C2=O [compound 170, 2-(4-carboxy-3′,4′-difluoro[1,1′-biphenyl]-3-yl)-6-methoxy-1,3-dioxo-2,3-dihydro-1H-isoindole-5-carboxylic acid]
14 | 5 to 20 | COC(=O)c1cc(-c2c[nH]nn2)ccc1C(=O)Nc1sc(C)c(-c2ccc(OC)cc2)c1C#N [Example 9, methyl 2-{[3-cyano-4-(4-methoxyphenyl)-5-methylthiophen-2-yl]carbamoyl}-5-(2H-1,2,3-triazol-4-yl)benzoate]
15 | 2 to 5 | COc1ccc(-c2c(C)sc(N3C(=O)c4ccc(C(=O)N[C@@H](Cc5ccc(O)cc5)C(=O)O)cc4C3=O)c2C#N)cc1 [Compound 136, (2S)-2-({2-[3-Cyano-4-(4-methoxyphenyl)-5-methyl-thiophen-2-yl]-1,3-dioxo-2,3-dihydro-1H-isoindole-5-carbonyl}-amino)-3-(4-hydroxyphenyl)propanoic acid]
16 | 0.5 to 2 | NC(=O)c1ccc2c(c1)C(=O)N(c1cc(-c3ccccc3)ccc1C(=O)O)C2=O [Example 28]
17 | < 0.5 | COc1ccc(-c2ccc(C(=O)O)c(N3C(=O)c4ccc(C(=O)O)cc4C3=O)c2)cc1F [Compound 144, 2-(4-Carboxy-3′-fluoro-4′-methoxy[1,1′-biphenyl]-3-yl)-1,3-dioxo-2,3-dihydro-1H-isoindole-5-carboxylic acid]
18 | 2 to 5 | NC(COC(=O)c1ccc(-c2ccccc2)cc1N1C(=O)c2ccc(-c3c[nH]nn3)cc2C1=O)C(=O)O (stereo in doubt) [Compound 73, 3-[1,3-Dioxo-5-(1H-[1,2,3]triazol-4-yl)-1,3-dihydroisoindol-2-yl]biphenyl-4-carboxylic acid (2S)-2-amino-2-carboxy-ethyl ester]
19 | 0.5 to 2 | O=C(O)c1ccc2c(c1)C(=O)N(c1cc(-c3ccccc3)ccc1O)C2=O [Example 3, 2-(4-Hydroxy[1,1′-biphenyl]-3-yl)-1,3-dioxo-2,3-dihydro-1H-isoindole-5-carboxylic Acid]

Row | IC50 [µM] | SMILES
20 | < 0.5 | O=C(O)c1ccc(-c2ccccc2)cc1N1C(=O)c2ccc(-c3nnn[nH]3)cc2C1=O [Compound 95, 3-[1,3-Dioxo-5-(1H-tetrazol-5-yl)-1,3-dihydroisoindol-2-yl]biphenyl-4-carboxylic Acid]
21 | < 0.5 | CN(C)CCCOC(=O)c1ccc(-c2ccc(Cl)cc2Cl)cc1NC(=O)c1cc(O)c(C(=O)O)cc1C(=O)O [Example 51, 4-[(2′,4′-dichloro-4-{[3-(dimethylamino)propoxy]carbonyl}-[1,1′-biphenyl]-3-yl)carbamoyl]-6-hydroxybenzene-1,3-dicarboxylic acid]
22 | < 0.5 | O=C(O)c1cc(C(=O)Nc2cc(-c3ccc(F)c(F)c3)ccc2C(=O)O)c(C(=O)O)cc1Cl [Example 46, 2-({4-carboxy-3′,4′-difluoro-[1,1′-biphenyl]-3-yl}carbamoyl)-5-chlorobenzene-1,4-dicarboxylic acid]
23 | < 0.5 | O=C(O)c1ccc2c(c1)C(=O)N(c1cc(-c3ccc(F)cc3)ccc1C(=O)O)C2=O [Example 45]
24 | 5 to 20 | O=C(Nc1cc(Cl)c(-c2c[nH]nn2)cc1C(=O)O)c1cccc(-c2ccccc2)c1 [Example 18, 2-([1,1′-biphenyl]-3-carboxamido)-4-chloro-5-(1H-1,2,3-triazol-5-yl)benzoic acid]
25 | < 0.5 | CCOC(=O)c1ccc(-c2ccc(Cl)cc2Cl)cc1NC(=O)c1cc(C(=O)O)c(O)cc1C(=O)O [Example 60, 2-{[2′,4′-dichloro-4-(ethoxycarbonyl)-[1,1′-biphenyl]-3-yl]carbamoyl}-5-hydroxybenzene-1,4-dicarboxylic acid]
26 | 5 to 20 | O=C(OCC(O)CO)c1ccc(-c2ccccc2)cc1N1C(=O)c2ccc(-c3c[nH]nn3)cc2C1=O (centres unmarked) [Compound 70, 3-[1,3-Dioxo-5-(1H-[1,2,3]triazol-4-yl)-1,3-dihydroisoindol-2-yl]biphenyl-4-carboxylic acid 2,3-dihydroxy-propyl ester]
27 | < 0.5 | O=C(O)c1cc(-c2ccccc2)ccc1N1C(=O)c2ccc(-c3c[nH]nn3)cc2C1=O [Example 31, 4-[1,3-Dioxo-5-(1H-[1,2,3]triazol-4-yl)-1,3-dihydroisoindol-2-yl]biphenyl-3-carboxylic Acid]
28 | < 0.5 | O=C(O)c1ccc2c(c1)C(=O)N(c1cc(-c3ccc(F)c(F)c3F)ccc1C(=O)O)C2=O [Compound 139, 2-(4-Carboxy-2′,3′,4′-trifluoro[1,1′-biphenyl]-3-yl)-1,3-dioxo-2,3-dihydro-1H-isoindole-5-carboxylic Acid]
29 | 2 to 5 | COC(=O)c1ccc(-c2ccccc2)cc1N1C(=O)c2ccc(-c3nnn[nH]3)cc2C1=O [Example 44]
30 | < 20 | COC(=O)c1cc(-c2ccccc2)ccc1N1C(=O)c2ccc(C(=O)NS(C)(=O)=O)cc2C1=O [Example 40]
31 | 5 to 20 | Cc1oc(=O)oc1COC(=O)c1ccc(-c2ccc(F)c(F)c2)cc1N1Cc2ccc(-c3c[nH]nn3)cc2C1=O [Compound 116, 3′,4′-Difluoro-3-[1-oxo-6-(1H-[1,2,3]triazol-4-yl)-1,3-dihydro-isoindol-2-yl]-biphenyl-4-carboxylic acid (5-methyl-2-oxo-[1,3]dioxol-4-yl)methyl ester]
32 | < 20 | CCCCOC(=O)c1ccc2c(c1)C(=O)N(c1cc(OC)c(-c3ccccc3)cc1C(=O)OC)C2=O [Example 39]
33 | 5 to 20 | O=C(O)c1cc(-c2cnccn2)ccc1N1C(=O)c2ccc(-c3c[nH]nn3)cc2C1=O [Example 63]
34 | < 20 | Nc1cc(C(=O)O)ccc1C(=O)Nc1cc(-c2ccccc2)ccc1C(=O)O [Example 4, 3-(2-amino-4-carboxybenzamido)-[1,1′-biphenyl]-4-carboxylic acid]
35 | < 0.5 | CC(CN(C)C)OC(=O)c1ccc(-c2ccc(Cl)cc2Cl)cc1NC(=O)c1cc(C(=O)O)c(O)cc1C(=O)O (centres unmarked) [Example 73, 2-{[2′,4′-dichloro-4-({[1-(dimethylamino)propan-2-yl]oxy}carbonyl)-[1,1′-biphenyl]-3-yl]carbamoyl}-5-hydroxybenzene-1,4-dicarboxylic acid]
36 | 2 to 5 | COCCOC(=O)c1ccc(-c2ccccc2)cc1N1C(=O)c2ccc(-c3c[nH]nn3)cc2C1=O [Compound 69, 3-[1,3-Dioxo-5-(1H-[1,2,3]triazol-4-yl)-1,3-dihydroisoindol-2-yl]biphenyl-4-carboxylic acid 2-methoxy-ethyl ester]
37 | 2 to 5 | NC(=O)c1[nH]nnc1-c1ccc2c(c1)C(=O)N(c1cc(-c3ccc(F)c(F)c3)ccc1C(=O)O)C2 [compound 164, 3-(6-(5-carbamoyl-1H-1,2,3-triazol-4-yl)-1-oxoisoindolin-2-yl)-3′,4′-difluorobiphenyl-4-carboxylic acid]
38 | < 20 | CNC(=O)c1cc(CO)ccc1C(=O)Nc1sc(C)c(-c2ccc(OC)cc2)c1C#N [Example 15, N1-[3-cyano-4-(4-methoxyphenyl)-5-methylthiophen-2-yl]-4-(hydroxymethyl)-N2-methylbenzene-1,2-dicarboxamide]
